Results as given in patent US20020128269A1, “Substituted heterocyclic compounds for treating multidrug resistance” (priority 2000, published 2002).

System: NIH-MDR1-G185 cells
Test: Fluorescent Substrate Accumulation Assay (BODIPY-FL Taxol accumulation)
Assay type: cell-based
Conditions: fluorescence in NIH-MDR1-G185 cells in presence / absence of modulator; BODIPY-FL Taxol 500 nM, 40 min at 37° C; modulator final concentration of 10 microliters (so in the source)
Method: NIH-MDR1-G185 cells (obtained from M. Gottesman, NIH) were harvested and resuspended in RPMI-1640 containing L-glutamine, 10% Cosmic Calf Serum and penicillin-streptomycin. Cell suspension aliquots of 175 microliters (1×10^5 cells) were added to individual wells of a 96 well microtiter plate and preincubated for 15 min at 37° C with 20 microliters MDR modulator diluted in cell culture media to give a final concentration of 10 microliters. Control wells received no modulating agent. BODIPY-FL Taxol (Molecular Probes, Eugene, Oreg.) was added to each well in 10 microliter aliquots to give a final concentration of 500 nM and cells were incubated for 40 min at 37° C. Cells were centrifuged at 100× g for 5 min at 4° C. and the cell pellet washed with 200 microliters cold PBS to remove fluorescent medium from wells. Cells were centrifuged once more, media removed, and cells resuspended in 200 microliters cold PBS. Fluorescence accumulation was measured in a fluorescence plate reader fitted with an excitation filter of 485 nm and an emission filter of 538 nm. BODIPY-FL taxol accumulation in the cells was calculated as follows:
Accumulation Index=(fluorescence in NIH-MDR1-G185 cells in the presence of modulator )/(fluorescence in NIH-MDR1-G185 cells in absence of modulator)
Accumulation Index of various compounds prepared above was tested according to the method in Reference Example 3.

In the case of `O=C(NC(CCCc1ccccc1)CCCc1ccccc1)C1CN(C[C@@H](O)COc2cccc3ncccc23)CCN1C(=O)COCc1ccccc1` (stereo partly drawn) [Compound 38, 1-(Benzyloxyacetyl)-4-{1-[2-(R)-hydroxy-3-(quinolin-5-yloxy)-propyl]}-piperazine-2-carboxylic Acid [4-phenyl-1-(3-phenyl-propyl)-butyl]-amide], the “Accumulation Index” value is reported as 5.
